Test results: paper PMC10114980, “Triple targeting of mutant EGFR^L858R/T790M, COX-2, and 15-LOX: design and synthesis of novel quinazolinone tethered phenyl urea derivatives for anti-inflammatory and anticancer evaluation” (Journal of Enzyme Inhibition and Medicinal Chemistry, 2023)
“And” between values parts separate entries of the source, which are not always exact repeats. Identical values can stand only once.

Assays:
[1] = tested on: LPS-induced TNF-α production in RAW 264.7 cells; assay: TNF-α production in LPS-activated RAW 264.7 cells (ELISA); assay type: cell-based; settings: LPS-activated RAW 264.7 cells treated with 25 µM of the compound
MDA-MB-231/ATCC = assay: NCI single dose screen, MDA-MB-231/ATCC; assay type: cell-based; settings: Homo sapiens, breast cancer, single dose 10^−5 M, read-out: growth inhibition percentage
Description: (§1) Screening of the anticancer activity of the newly synthesised compounds (6a, 6c, 6d, 6e, 6j, 6l, 6m, 6n, 6o, and 6p) was performed by the US National Cancer Institute (NCI) using 60 different human tumour cell lines in accordance with standard procedures formerly reported.
(§2) In vitro anticancer screening was carried out for the selected compounds at a single dose (10^−5 M) against 60 different human tumour cell lines of nine different cancer cell types: leukaemia, lung, colon, CNS, melanoma, ovarian, renal, prostate, and breast cancers.

HS 578T = assay: NCI single dose screen, HS 578T; assay type: cell-based; settings: Homo sapiens, breast cancer, single dose 10^−5 M, read-out: growth inhibition percentage
Description: as §1, §2

[2] = tested on: LPS-induced IL-6 production in RAW 264.7 cells; assay: IL-6 production in LPS-activated RAW 264.7 cells (ELISA); assay type: cell-based; settings: LPS-activated RAW 264.7 cells treated with 25 µM of the compound
SN12C = assay: NCI single dose screen, SN12C; assay type: cell-based; settings: Homo sapiens, renal cancer, single dose 10^−5 M, read-out: growth inhibition percentage
Description: as §1, §2

HCT-116 = assay: NCI single dose screen, HCT-116; assay type: cell-based; settings: Homo sapiens; HCT-116, colon cancer; single dose 10^−5 M; read-out: growth inhibition percentage
Description: as §1, §2

HOP-62 = assay: NCI single dose screen, HOP-62; assay type: cell-based; settings: Homo sapiens; HOP-62, non-small cell lung cancer; single dose 10^−5 M; read-out: growth inhibition percentage
Description: as §1, §2

MALME-3M = assay: NCI single dose screen, MALME-3M; assay type: cell-based; settings: Homo sapiens, melanoma, single dose 10^−5 M, read-out: growth inhibition percentage
Description: as §1, §2

RPMI-8226 = assay: NCI single dose screen, RPMI-8226; assay type: cell-based; settings: Homo sapiens; RPMI-8226, leukaemia; single dose 10^−5 M; read-out: growth inhibition percentage
Description: as §1, §2

MOLT-4 = assay: NCI single dose screen, MOLT-4; assay type: cell-based; settings: Homo sapiens; MOLT-4, leukaemia; single dose 10^−5 M; read-out: growth inhibition percentage
Description: as §1, §2

T-47D = assay: NCI single dose screen, T-47D; assay type: cell-based; settings: Homo sapiens, T47D, breast cancer, single dose 10^−5 M, read-out: growth inhibition percentage
Description: as §1, §2

SK-MEL-5 = assay: NCI single dose screen, SK-MEL-5; assay type: cell-based; settings: Homo sapiens; SK-MEL-5, melanoma; single dose 10^−5 M; read-out: growth inhibition percentage
Description: as §1, §2

[3] = molecular target: T1, double mutant EGFR^L858R/T790M (Homo sapiens, UniProt P00533, L858R/T790M); assay: In vitro EGFR inhibition assay, double mutant; assay type: biochemical; settings: for IC50: double mutant EGFR; for Selectivity (SI): ratio of the IC50 values EGFR^WT/EGFR^L858R/T790M
T1 construct: purchased AssayQuant Technologies, Inc. (Marlboro, MA, USA)

SK-MEL-28 = assay: NCI single dose screen, SK-MEL-28; assay type: cell-based; settings: Homo sapiens; SK-MEL-28, melanoma; single dose 10^−5 M; read-out: growth inhibition percentage
Description: as §1, §2

M14 = assay: NCI single dose screen, M14; assay type: cell-based; settings: Homo sapiens; M14, melanoma; single dose 10^−5 M; read-out: growth inhibition percentage
Description: as §1, §2

HL-60(TB) = assay: NCI single dose screen, HL-60(TB); assay type: cell-based; settings: Homo sapiens, leukaemia, single dose 10^−5 M, read-out: growth inhibition percentage
Description: as §1, §2

SNB-19 = assay: NCI single dose screen, SNB-19; assay type: cell-based; settings: Homo sapiens; SNB-19, CNS cancer; single dose 10^−5 M; read-out: growth inhibition percentage
Description: as §1, §2

MDA-MB-435 = assay: NCI single dose screen, MDA-MB-435; assay type: cell-based; settings: Homo sapiens; MDA-MB-435, melanoma; single dose 10^−5 M; read-out: growth inhibition percentage
Description: as §1, §2

786-0 = assay: NCI single dose screen, 786-0; assay type: cell-based; settings: Homo sapiens; 786-0, renal cancer; single dose 10^−5 M; read-out: growth inhibition percentage
Description: as §1, §2

U251 = assay: NCI single dose screen, U251; assay type: cell-based; settings: Homo sapiens, U-251; U251, CNS cancer; single dose 10^−5 M; read-out: growth inhibition percentage
Description: as §1, §2

SF-268 = assay: NCI single dose screen, SF-268; assay type: cell-based; settings: Homo sapiens; SF-268, CNS cancer; single dose 10^−5 M; read-out: growth inhibition percentage
Description: as §1, §2

OVCAR-3 = assay: NCI single dose screen, OVCAR-3; assay type: cell-based; settings: Homo sapiens; OVCAR-3, ovarian cancer; single dose 10^−5 M; read-out: growth inhibition percentage
Description: as §1, §2

HCC-2998 = assay: NCI single dose screen, HCC-2998; assay type: cell-based; settings: Homo sapiens; HCC-2998, colon cancer; single dose 10^−5 M; read-out: growth inhibition percentage
Description: as §1, §2

COLO 205 = assay: NCI single dose screen, COLO 205; assay type: cell-based; settings: Homo sapiens; COLO 205, colon cancer; single dose 10^−5 M; read-out: growth inhibition percentage
Description: as §1, §2

UO-31 = assay: NCI single dose screen, UO-31; assay type: cell-based; settings: Homo sapiens; UO-31, renal cancer; single dose 10^−5 M; read-out: growth inhibition percentage
Description: as §1, §2

IGROV1 = assay: NCI single dose screen, IGROV1; assay type: cell-based; settings: Homo sapiens, IGROV-1; IGROV1, ovarian cancer; single dose 10^−5 M; read-out: growth inhibition percentage
Description: as §1, §2

SF-295 = assay: NCI single dose screen, SF-295; assay type: cell-based; settings: Homo sapiens; SF-295, CNS cancer; single dose 10^−5 M; read-out: growth inhibition percentage
Description: as §1, §2

OVCAR-5 = assay: NCI single dose screen, OVCAR-5; assay type: cell-based; settings: Homo sapiens; OVCAR-5, ovarian cancer; single dose 10^−5 M; read-out: growth inhibition percentage
Description: as §1, §2

OVCAR-8 = assay: NCI single dose screen, OVCAR-8; assay type: cell-based; settings: Homo sapiens; OVCAR-8, ovarian cancer; single dose 10^−5 M; read-out: growth inhibition percentage
Description: as §1, §2

A549/ATCC = assay: NCI single dose screen, A549/ATCC; assay type: cell-based; settings: Homo sapiens, non-small cell lung cancer, single dose 10^−5 M, read-out: growth inhibition percentage
Description: as §1, §2

MCF7 = assay: NCI single dose screen, MCF7; assay type: cell-based; settings: Homo sapiens; MCF7, breast cancer; single dose 10^−5 M; read-out: growth inhibition percentage
Description: as §1, §2

LOX IMVI = assay: NCI single dose screen, LOX IMVI; assay type: cell-based; settings: Homo sapiens, melanoma, single dose 10^−5 M, read-out: growth inhibition percentage
Description: as §1, §2

T1 sequence (P00533 25-1210 T790M/L858R): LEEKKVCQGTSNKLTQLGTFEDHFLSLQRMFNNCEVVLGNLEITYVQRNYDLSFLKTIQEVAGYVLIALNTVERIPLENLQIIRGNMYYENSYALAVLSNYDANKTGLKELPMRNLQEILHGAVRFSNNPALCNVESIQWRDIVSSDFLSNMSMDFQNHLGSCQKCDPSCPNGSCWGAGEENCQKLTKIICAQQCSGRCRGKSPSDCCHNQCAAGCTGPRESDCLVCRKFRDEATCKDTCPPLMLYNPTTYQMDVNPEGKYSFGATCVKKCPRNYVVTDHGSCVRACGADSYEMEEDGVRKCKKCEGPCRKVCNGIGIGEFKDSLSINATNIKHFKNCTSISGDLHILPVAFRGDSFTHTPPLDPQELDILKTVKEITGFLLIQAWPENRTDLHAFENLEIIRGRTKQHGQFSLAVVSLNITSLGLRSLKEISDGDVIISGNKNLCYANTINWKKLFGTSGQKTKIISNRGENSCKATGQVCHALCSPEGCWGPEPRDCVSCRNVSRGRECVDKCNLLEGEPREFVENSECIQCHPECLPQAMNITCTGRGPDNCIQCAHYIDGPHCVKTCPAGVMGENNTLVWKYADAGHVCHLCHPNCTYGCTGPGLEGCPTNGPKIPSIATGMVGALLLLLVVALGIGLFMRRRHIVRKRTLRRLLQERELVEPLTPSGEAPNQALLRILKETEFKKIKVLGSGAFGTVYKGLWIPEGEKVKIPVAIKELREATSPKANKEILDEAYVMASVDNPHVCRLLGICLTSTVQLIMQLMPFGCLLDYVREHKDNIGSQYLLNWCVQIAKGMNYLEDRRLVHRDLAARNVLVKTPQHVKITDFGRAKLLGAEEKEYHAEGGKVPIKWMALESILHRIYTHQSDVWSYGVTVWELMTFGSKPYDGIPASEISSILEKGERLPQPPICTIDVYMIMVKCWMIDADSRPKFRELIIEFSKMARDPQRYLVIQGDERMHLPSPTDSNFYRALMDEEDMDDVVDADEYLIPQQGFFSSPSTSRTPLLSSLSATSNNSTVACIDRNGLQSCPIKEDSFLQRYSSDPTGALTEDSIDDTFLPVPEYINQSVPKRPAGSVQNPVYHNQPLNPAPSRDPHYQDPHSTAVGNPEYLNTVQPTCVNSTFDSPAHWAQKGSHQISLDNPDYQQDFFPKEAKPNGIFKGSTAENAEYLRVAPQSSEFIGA

Structure (SMILES)	TNF-α concentration [1]	inhibition at 10 µM (MDA-MB-231/ATCC)	inhibition at 10 µM (HS 578T)	IL-6 concentration [2]	inhibition at 10 µM (SN12C)	inhibition at 10 µM (HCT-116)	inhibition at 10 µM (HOP-62)	inhibition at 10 µM (MALME-3M)	inhibition at 10 µM (RPMI-8226)	inhibition at 10 µM (MOLT-4)	inhibition at 10 µM (T-47D)	inhibition at 10 µM (SK-MEL-5)	IC50 [3]	Selectivity (SI) [3]	inhibition at 10 µM (SK-MEL-28)	inhibition at 10 µM (M14)	inhibition at 10 µM (HL-60(TB))	inhibition at 10 µM (SNB-19)	inhibition at 10 µM (MDA-MB-435)	inhibition at 10 µM (786-0)	further results
COc1ccc(NC(=O)NN2C(=O)c3ccccc3N(C)C2c2ccc(OC)cc2)cc1 (stereo not drawn) [Compound 6j, 1-(4-Methoxyphenyl)-3-(2-(4-methoxyphenyl)-1-methyl-4-oxo-1,4-dihydroquinazolin-3(2H)-yl)urea]	757.30 pg/mL and 757.30 ± 2.50 pg/mL	< 10%	< 10%	164.6 ± 5.09 pg/mL	< 10%	40.6%	< 10%	< 10%	< 10%	< 10%	< 10%	< 10%	4.03 ± 1.43 µM	>24.8	< 10%	29.6%	< 10%	< 10%	< 10%	34.2%	inhibition at 10 µM (U251): < 10%; inhibition at 10 µM (SF-268): < 10%; inhibition at 10 µM (OVCAR-3): 10.2%; inhibition at 10 µM (HCC-2998): < 10%; inhibition at 10 µM (COLO 205): < 10%; inhibition at 10 µM (UO-31): 24.6%; inhibition at 10 µM (IGROV1): < 10%; inhibition at 10 µM (SF-295): < 10%; inhibition at 10 µM (OVCAR-5): < 10%; inhibition at 10 µM (OVCAR-8): < 10%; inhibition at 10 µM (A549/ATCC): < 10%; inhibition at 10 µM (MCF7): < 10%; inhibition at 10 µM (LOX IMVI): < 10%
CN1c2ccccc2C(=O)N(NC(=O)Nc2ccccc2)C1c1ccccc1 (stereo not drawn) [Compound 6c, 1-(1-Methyl-4-oxo-2-phenyl-1,4-dihydroquinazolin-3(2H)-yl)-3-phenylurea]	955.00 ± 4.66 pg/mL	< 10%	56.8%	468.4 ± 87.46 pg/mL	< 10%	16.8%	< 10%	< 10%	< 10%	< 10%	< 10%	< 10%	7.93 ± 1.11 µM	>12.6	< 10%	< 10%	< 10%	< 10%	< 10%	35.3%	inhibition at 10 µM (U251): < 10%; inhibition at 10 µM (SF-268): < 10%; inhibition at 10 µM (OVCAR-3): 11.7%; inhibition at 10 µM (HCC-2998): < 10%; inhibition at 10 µM (COLO 205): < 10%; inhibition at 10 µM (UO-31): 19.5%; inhibition at 10 µM (IGROV1): < 10%; inhibition at 10 µM (SF-295): < 10%; inhibition at 10 µM (OVCAR-5): < 10%; inhibition at 10 µM (OVCAR-8): < 10%; inhibition at 10 µM (A549/ATCC): < 10%; inhibition at 10 µM (MCF7): < 10%; inhibition at 10 µM (LOX IMVI): < 10%
